Source: patent publication US11304966B2, “Composition comprising HMOs for preventing or reducing nociception” (Glycom A/S, priority 2017, dated 2022)

Target: T1, GPR35 receptor (Homo sapiens, UniProt Q9HC97)
T1 construct: expressed in transfected cells
Assay: PathHunter β-Arrestin assay, activation of GPR35 expressed in cultured cells
Format: cell-based
Conditions: for activation of GPR35: up to 10 mM; for EC50: highest concentration tested 10 mM, duplicate
Excerpt: Six human milk oligosaccharides (LNnT, LNT, 2′-FL, DFL, 6′-SL and 3′-SL) are screened for their ability to activate the GPR35 receptor in the PathHunter β-Arresin assay. This assay monitors the activation of GPR35 expressed in cultured cells, using Enzyme Fragment Complementation with β-galactosidase (β-Gal) as the functional reporter. […] EA is fused to β-Arrestin and PK is fused to GPR35. When the GPR35 is activated and β-Arrestin is recruited to the receptor, PK and EA complementation occurs, restoring β-Gal activity, which is measured using chemiluminescent Detection Reagents.
The GPR35 cell line is expanded from frozen stocks and cultured according to standard procedures. Cells are seeded in a total volume of 20 μl into white walled, 384-well microplates and incubated at 37° C. for the appropriate time prior to testing. All testing is done in duplicate. The HMO samples are held in the form of concentrated stocks in Phosphate Buffered saline (PBS). A 5× dilution compound working intermediate is prepared in PBS. Five μl of the sample is added to the cells and incubated at room temperature for 3 to 5 hours. The assay signal is generated through a single addition of 12.5 μl (50 v/v %) of PathHunter Detection reagent cocktail, followed by one-hour incubation at room temperature. Microplates are read following signal generation with a PerkinElmer Envision™ instrument for chemiluminescent signal detection. Zaprinast (which is known to be an activator of GPR35) is used as positive control. Dose-response is generated by iterative 3× dilutions of the highest concentration tested (10 mM).

T1 sequence (Q9HC97 whole entry): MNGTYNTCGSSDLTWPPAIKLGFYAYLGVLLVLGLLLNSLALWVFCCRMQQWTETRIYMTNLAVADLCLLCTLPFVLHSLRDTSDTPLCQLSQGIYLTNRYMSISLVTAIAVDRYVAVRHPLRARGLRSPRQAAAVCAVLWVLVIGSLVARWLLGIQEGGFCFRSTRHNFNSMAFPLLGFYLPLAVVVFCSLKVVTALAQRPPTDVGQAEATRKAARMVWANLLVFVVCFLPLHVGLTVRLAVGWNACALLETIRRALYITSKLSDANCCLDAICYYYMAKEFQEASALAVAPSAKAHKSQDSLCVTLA
T1 sequence (P32121 whole entry partner): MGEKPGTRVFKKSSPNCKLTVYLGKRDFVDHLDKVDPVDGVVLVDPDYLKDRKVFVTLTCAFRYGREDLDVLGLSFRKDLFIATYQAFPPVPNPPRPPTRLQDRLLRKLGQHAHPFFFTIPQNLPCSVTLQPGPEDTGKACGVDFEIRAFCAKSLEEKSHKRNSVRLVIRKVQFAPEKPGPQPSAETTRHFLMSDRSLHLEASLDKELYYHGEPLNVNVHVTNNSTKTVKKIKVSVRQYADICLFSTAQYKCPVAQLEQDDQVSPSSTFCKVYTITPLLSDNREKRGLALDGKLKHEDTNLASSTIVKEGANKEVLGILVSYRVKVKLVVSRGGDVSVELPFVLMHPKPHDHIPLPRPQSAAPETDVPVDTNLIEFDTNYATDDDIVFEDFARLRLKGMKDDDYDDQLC

activation of GPR35	EC50 [mM]	Compound
No activation		CC(=O)N[C@H]1[C@H]([C@H](O)[C@H](O)CO)O[C@@](O[C@H]2[C@@H](O)[C@@H](CO)O[C@@H](O[C@H]3[C@H](O)[C@@H](O)C(O)O[C@@H]3CO)[C@@H]2O)(C(=O)O)C[C@@H]1O (some centres unmarked) [3′-SL, 3′-sialyllactose]
	6.5	CC(=O)N[C@H]1[C@H]([C@H](O)[C@H](O)CO)O[C@@](OC[C@H]2O[C@@H](O[C@H]3[C@H](O)[C@@H](O)[C@H](O)O[C@@H]3CO)[C@H](O)[C@@H](O)[C@H]2O)(C(=O)O)C[C@@H]1O [6′-SL, 6′-sialyllactose]

The next lines start with the molecule.

Compound	activation of GPR35	EC50 [mM]
CC(=O)N[C@H]1[C@H](O[C@H]2[C@@H](O)[C@@H](CO)O[C@@H](O[C@H]3[C@H](O)[C@@H](O)C(O)O[C@@H]3CO)[C@@H]2O)O[C@H](CO)[C@@H](O[C@@H]2O[C@H](CO)[C@H](O)[C@H](O)[C@H]2O)[C@@H]1O (mixture of isomers) [LNnT, lacto-N-neotetraose]	No activation	
C[C@@H]1O[C@@H](O[C@H]2[C@H](O[C@H]3[C@H](O[C@@H]4O[C@@H](C)[C@@H](O)[C@@H](O)[C@@H]4O)[C@@H](O)C(O)O[C@@H]3CO)O[C@H](CO)[C@H](O)[C@@H]2O)[C@@H](O)[C@H](O)[C@@H]1O (some centres unmarked) [DFL, difucosyllactose]	No activation	
CC(=O)N[C@H]1[C@H](O[C@H]2[C@@H](O)[C@@H](CO)O[C@@H](O[C@H]3[C@H](O)[C@@H](O)C(O)O[C@@H]3CO)[C@@H]2O)O[C@H](CO)[C@@H](O)[C@@H]1O[C@@H]1O[C@H](CO)[C@H](O)[C@H](O)[C@H]1O (some centres unmarked) [LNT, lacto-N-tetraose]		4.5
